In BindingDB's records for doi:10.1021/jm9509096 (1996):
Counter-ions that a name gives are not always drawn.

The compounds below were run against cGMP-specific 3',5'-cyclic phosphodiesterase (Cavia porcellus) (assay: Inhibition in vitro of Phosphodiesterase 5 isolated from guinea pig lung).
`COc1cc2cc(CO)c(CO)c(-c3cc[nH]c(=O)c3)c2cc1OC` [4-(2,3-Bis-hydroxymethyl-6,7-dimethoxy-naphthalen-1-yl)-3H-pyridin-2-one] showed an IC50 of 10 µM.
Work on `COc1cc2cc(CO)c(CO)c(-c3cc(OC)c(OC)c(C(=O)N(C)C)c3)c2cc1OC` [5-(2,3-Bis-hydroxymethyl-6,7-dimethoxy-naphthalen-1-yl)-2,3-dimethoxy-N,N-dimethyl-benzamide] yielded an IC50 of 30 µM.
Work on `COc1cc2cc(CO)c(CO)cc2cc1OC` [(3-Hydroxymethyl-6,7-dimethoxy-naphthalen-2-yl)-methanol] yielded an IC50 of over 100 µM.
For `CCOc1cc2cc(CO)c(CO)c(-c3cc(N)c(OC)c(OC)c3)c2cc1OCC` [[1-(3-Amino-4,5-dimethoxy-phenyl)-6,7-diethoxy-3-hydroxymethyl-naphthalen-2-yl]-methanol; hydrochloride], the IC50 was 30 µM.
In the case of `COc1cc2cc(CO)c(CO)c(-c3cc(OC)c(OC)c(S(C)(=O)=O)c3)c2cc1OC` [[3-Hydroxymethyl-1-(3-methanesulfonyl-4,5-dimethoxy-phenyl)-6,7-dimethoxy-naphthalen-2-yl]-methanol], the IC50 is reported as 53 µM.
For `COc1cc2cc(CO)c(CO)c(Cc3cc(OC)c(OC)c(OC)c3)c2cc1OC` [[3-Hydroxymethyl-6,7-dimethoxy-1-(3,4,5-trimethoxy-benzyl)-naphthalen-2-yl]-methanol], the IC50 was 20 µM.
`COc1cc2cc(CO)c(CO)c(-c3cc(OC)c(OC)c(OC)c3)c2cc1OC` [[3-Hydroxymethyl-6,7-dimethoxy-1-(3,4,5-trimethoxy-phenyl)-naphthalen-2-yl]-methanol] was tested, and the IC50 was 3 µM.
Compound `COc1ccc2c(-c3cc(OC)c(OC)c(OC)c3)c(CO)c(CO)cc2c1` [[3-Hydroxymethyl-6-methoxy-1-(3,4,5-trimethoxy-phenyl)-naphthalen-2-yl]-methanol] has an IC50 of 8 µM.
In the case of `COc1cc(-c2c(CO)c(CO)cc3cc4c(cc23)OCO4)cc(OC)c1OC` [[7-Hydroxymethyl-5-(3,4,5-trimethoxy-phenyl)-naphtho[2,3-d][1,3]dioxol-6-yl]-methanol], the IC50 is reported as over 30 µM.
